We go through 5 compounds from US20160151377A1, “USE OF SIGMA RECEPTOR LIGANDS FOR THE PREVENTION AND TREATMENT OF PAIN ASSOCIATED TO INTERSTITIAL CYSTITIS/BLADDER PAIN SYNDROME (IC/BPS)” (LABORATORIOS DEL DR. ESTEVE S.A., priority 2013, published 2016).

SMILES strings stand for the structures.

Experiment [1] concerns cyclophosphamide-induced cystitis. The format is in vivo, mice. How it is done:
(§1) Testing took place during the light phase (from 9.00 h to 15.00 h).

Experiment [2] has the same test system. Particulars: cyclophosphamide 300 mg/kg i.p., WT mice. How it is done:
as §1

Another experiment relates to σ1 receptors. Particulars: cited from earlier work; for affinity for σ1 receptors relative to haloperidol: rodent brain membranes and human neuroblastoma cells.
The test system of another experiment is D2 receptors. The following applies: compared with haloperidol; cited from earlier work.
A further experiment concerns sigma-1 receptors. The following applies: both in experimental animals and human cells; cited from earlier work.
The test system of another experiment is sigma receptor. Particulars: cited from earlier work.

Turning to `CN1CC[C@]23c4c5ccc(O)c4O[C@H]2[C@@H](O)C=C[C@H]3[C@H]1C5.Cl` [morphine, Morphine hydrochloride], the “50% mechanical threshold, referred mechanical hyperalgesia” value in experiment [1] (mouse, in vivo) was “increase the mechanical threshold to above the control value”.
With `O=P1(N(CCCl)CCCl)NCCCO1` (stereo not shown) [cyclophosphamide], the “mechanical threshold for referred hyperalgesia” value in experiment [1] (cyclophosphamide 100 mg/kg i.p., WT and σ1-KO mice) was “maximum reduction in the mechanical threshold”. The “pain score (pain-related behaviors)” value in experiment [2] is reported as “maximum pain score”.
For the compound `OC1(c2ccc(Cl)cc2)CCNCC1` [metabolite I, 4-(4-chlorophenyl)-4-hydroxypiperidine], the “affinity for σ1 receptors relative to haloperidol” value in the experiment with σ1 receptors is recorded as “less affinity than haloperidol”. Besides, in the experiment on D2 receptors, the “affinity for D2 receptors” value is “no affinity”.
Consider `OC(CCCN1CCC(O)(c2ccc(Cl)cc2)CC1)c1ccc(F)cc1` (stereo not shown) [metabolite II, 4-(4-chlorophenyl)-[…]-(4-fluorophenyl)-4-hydroxy-1-piperidinebutanol], for which, in the experiment with σ1 receptors, the “affinity for sigma-1 receptors” value is on record as “high affinity (in the low nanomolar range)” and the “affinity for σ1 receptors relative to haloperidol” value is reported as “less affinity than haloperidol”. Further, the “affinity for D2 receptors” value in the experiment on D2 receptors was “much lower”. In addition, the “blockade of sigma-1 receptors” value in the experiment with sigma-1 receptors is “irreversible blockade”.
For `CC(C)=CCN1CCC2(C)c3cc(O)ccc3CC1C2C` (stereo not shown) [pentazocine], in the experiment on sigma receptor, the “affinity of sigma receptors for analgesics” value is given as “very high affinity”.
